Laboratory results as given in US20040241840A1, “Compositions for therapy” (priority 2001, published 2004).
Counter-ions that a name gives are not always drawn. Marks after values point to notes of the source that are not given here.

Columns and labels:
[1] = test system: α-smooth muscle actin expression in human HSCs; test: α-smooth muscle actin expression in cultured human hepatic stellate cells (Western blotting); format: cell-based; conditions: human HSCs cultured for 15 days, FIG. 3
Method: The effect of LAGS ligands on activation to the pro-fibrogenic phenotype was investigated by measuring the effect of LAGS ligands on expression of α-smooth muscle actin in cultured human hepatic stellate cells. […] Whole cell extracts (10 μg protein/lane) were probed for alpha-smooth muscle actin and GFAP (glial fibrillary acidic protein—loading control) protein expression by Western blotting. Scanned blots were quantitated using Phoretix software (Nonlinear Dynamics, Newcastle, UK).

[2] = target: T1, low affinity glucocorticoid binding site (LAGS) (Rattus norvegicus, UniProt P70580); conditions: 1 μM; Wright & Paine (1995); cited from earlier work
T1 sequence (P70580 2-195): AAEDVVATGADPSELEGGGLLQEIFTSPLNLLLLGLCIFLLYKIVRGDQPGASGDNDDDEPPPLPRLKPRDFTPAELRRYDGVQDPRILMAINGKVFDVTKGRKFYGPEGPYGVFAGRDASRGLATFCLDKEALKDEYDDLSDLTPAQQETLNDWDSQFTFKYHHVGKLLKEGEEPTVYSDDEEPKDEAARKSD

[3] = target: T1, low affinity glucocorticoid binding site (LAGS); test: competition analysis with 5×10^−8M [3H]dexamethasone for binding to the LAGS; conditions: for IC50: read-out: IC50% (concentration of unlabelled competitor reducing specific binding of radiolabelled dexamethasone to the LAGS to 50% of control); for competition with dexamethasone for binding to the LAGS (in words): 4° for 8 hours, FIG. 2
Method: Washed liver microsomes (100,000 g pellet) were prepared after canulating the portal vein of a rat and perfusing blood from the liver using ice-cooled hanks buffer.
Data were analysed using standard methods.
Potential competitors were added from ethanol stocks such that the final ethanol concentration in the assay was less than 1% (v/v). Specific binding was determined using conventional methods as described above.
Free ligand was removed using dextran-charcoal. […] Competitors were added from ethanol stocks such that final ethanol concentration in the assay was less than 1% (v/v).

[4] = test system: T6 cells (rat hepatic stellate cell line); test: proliferation of T6 cells (cell count); format: cell-based; conditions: re-treated at 24 hours, counted at 48 hours
Method: (§1) However, when rat and human HSCs were treated with ligands of LAGS, the proliferation and activation of the HSCs was inhibited. In addition, T6 cells (rat hepatic stellate cell line) were seeded at low density in 6 well plates in DMEM supplemented with 4% (v/v) FCS. The T6 cells were re-treated at 24 hours and counted at 48 hours. Human hepatic stellate cells were treated at days 2, 5, 7, 9 and 12 of culture and counted on day 15 of culture. Control cells were treated identically with 0.1% (v/v) ethanol used to prepare steroid stocks.

human HSCs = test: proliferation of human hepatic stellate cells (cell count); format: cell-based; conditions: treated at days 2, 5, 7, 9 and 12, counted on day 15
Method: (§2) Rat hepatic stellate cells (HSCs) were isolated by pronase/collagenase perfusion and purified by isopycnic density centrifugation in Opti-prep™ (Nycomed) and elutriation (Wright et al (2001) Gastroenterology 121(3): 685-698). Human HSCs were isolated from discarded resected liver via a similar protocol. The use of human liver tissue for scientific investigation was approved by the UK South and West Local Research Ethics Commitee and was subject to patient consent.
(§3) HSCs were cultured in Dulbecco's modified Eagle Medium (DMEM) containing 4.5 g/l of glucose, supplemented with 16% (v/v) fetal calf serum, 80 u/ml penicillin, 80 μg/ml streptomycin and 32 μg/ml gentamycin. Cells were seeded onto plastic culture dishes and incubated at 37° C. in an humidified incubator gassed with 5% CO2 in air. The culture medium was renewed after the first day and thereafter every 3-4 days.
as §1, with “Control cells were treated identically with 0.1% (v/v) ethanol used to prepare steroid stocks.” left out

rat and human HSCs = test: proliferation of rat and human HSCs, results in words; format: cell-based
Method: as §2, §3, §1

glucocorticoid receptor = target: T2, glucocorticoid receptor (Rattus norvegicus, UniProt P06536); test: specific binding of 10 nM [3H]dexamethasone in rat liver cytosol
T2 construct: from tissue; host or cells: rat liver cytosol
T2 sequence (P06536 1-795): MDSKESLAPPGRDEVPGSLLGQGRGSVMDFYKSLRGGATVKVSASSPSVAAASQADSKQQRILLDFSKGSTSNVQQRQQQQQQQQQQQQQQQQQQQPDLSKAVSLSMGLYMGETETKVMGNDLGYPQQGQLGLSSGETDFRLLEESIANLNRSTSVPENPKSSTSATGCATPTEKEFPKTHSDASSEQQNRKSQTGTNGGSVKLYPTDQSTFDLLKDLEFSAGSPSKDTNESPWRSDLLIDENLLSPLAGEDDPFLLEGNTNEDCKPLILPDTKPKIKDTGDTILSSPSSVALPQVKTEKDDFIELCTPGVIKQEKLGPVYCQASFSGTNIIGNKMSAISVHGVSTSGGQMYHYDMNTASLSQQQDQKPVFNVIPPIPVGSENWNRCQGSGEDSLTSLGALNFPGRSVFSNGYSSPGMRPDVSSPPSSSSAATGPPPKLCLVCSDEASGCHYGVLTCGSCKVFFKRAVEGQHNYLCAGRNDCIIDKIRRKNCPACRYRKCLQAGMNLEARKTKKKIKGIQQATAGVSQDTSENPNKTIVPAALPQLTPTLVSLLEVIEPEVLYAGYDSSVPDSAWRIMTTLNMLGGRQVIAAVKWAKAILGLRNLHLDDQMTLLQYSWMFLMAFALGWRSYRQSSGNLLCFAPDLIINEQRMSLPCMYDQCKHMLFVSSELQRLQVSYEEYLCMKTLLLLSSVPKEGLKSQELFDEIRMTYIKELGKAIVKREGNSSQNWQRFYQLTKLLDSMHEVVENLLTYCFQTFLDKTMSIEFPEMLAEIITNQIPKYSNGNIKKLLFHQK

[5] = target: T1, low affinity glucocorticoid binding site (LAGS); test: specific binding of 10 nM [3H]dexamethasone in rat liver microsomes; conditions: read-out: % specific binding compared to dexamethasone alone, microsomes
[6] = test system: rats administered CCl4 (liver fibrosis); test: CCl4 liver fibrosis rat in vivo model; conditions: PCN once weekly during CCl4 twice weekly for 6 weeks
Method: Rats were administered CCl4 twice weekly for 6 weeks to cause liver fibrosis and administered PCN once weekly during CCl4 treatment.

## oestradiol
[1]; 1 μM oestradiol
  expression of α-smooth muscle actin (in words): inhibited expression of α-smooth muscle actin
[2]
  binding to the LAGS (in words): a ligand for the LAGS at this concentration

## CC(=NOCC(=O)O)[C@H]1CC[C@H]2[C@@H]3CCC4=C[C@@H](O)CC[C@]4(C)[C@H]3CC[C@]12C [4 pregnene-3β-ol-20-one carboxymethyloxime]
[3]
  IC50: > 100 µM

## Clc1ccccc1C(c1ccccc1)(c1ccccc1)n1ccnc1 [clotrimazole]
[3]
  competition with dexamethasone for binding to the LAGS (in words): compete with dexamethasone for binding to the LAGS
[4]; 5 μM
  % proliferation versus control (100%), T6 cells: 18 +/− 4.7%
Human HSCs; 5 μM
  % proliferation versus control (100%), human HSCs: 25 +/− 13%
Rat and human HSCs
  effect on cell proliferation (in words): inhibited in their ability to proliferate
[1]; 1 μM clotrimazole
  expression of α-smooth muscle actin (in words): inhibited expression of α-smooth muscle actin

## CC(=O)[C@H]1CC[C@H]2[C@@H]3CCC4=CC(=O)CC[C@]4(C)[C@H]3[C@@H](OS(=O)(=O)c3ccc(C)cc3)C[C@]12C [11β-progesterone tosylate]
[3]
  IC50: 10 µM

## CCC1(c2ccccc2)C(=O)NC(=O)NC1=O [phenobarbitone]
[3]
  competition with dexamethasone for binding to the LAGS (in words): compete with dexamethasone for binding to the LAGS

## CC(=O)[C@H]1CC[C@H]2[C@@H]3CCC4=CC(=O)CC[C@]4(C)[C@H]3[C@H](O)C[C@]12C [11α-hydroxyprogesterone]
[3]
  IC50: 0.1 µM

## CC(C)(C(=O)c1cccnc1)c1cccnc1 [metyrapone]
Glucocorticoid receptor; metyrapone, concentration not given, mean and SD of 3 samples
  % specific binding compared to dexamethasone alone, cytosol: 105 +/− 4.0%
[3]
  competition with dexamethasone for binding to the LAGS (in words): compete with dexamethasone for binding to the LAGS
[4]; 500 μM
  % proliferation versus control (100%), T6 cells: 52 +/− 5.7%
Human HSCs; 500 μM
  % proliferation versus control (100%), human HSCs: 76 +/− 18%
Rat and human HSCs
  effect on cell proliferation (in words): inhibited in their ability to proliferate
[1]; 200 μM metyrapone
  expression of α-smooth muscle actin (in words): inhibited expression of α-smooth muscle actin

## CC1CC2C3CCC4=CC(=O)C=CC4(C)C3(F)C(O)CC2(C)C1(O)C(=O)O (stereo not drawn) [17β-carboxylic acid derivative, 9α-fluoro 16α-methyl-11β,17α-dihydroxy-1,4-pregn-3-one 17-carboxylic acid]
[3]
  IC50: 100 µM

## CC(=O)[C@H]1CC[C@H]2[C@@H]3C[C@@H](O)C4=CC(=O)CC[C@]4(C)[C@H]3CC[C@]12C [6α-hydroxyprogesterone]
[3]
  IC50: 5 µM

## C[C@@H]1C[C@H]2[C@@H]3CCC4=CC(=O)C=C[C@]4(C)[C@@]3(F)[C@@H](O)C[C@]2(C)[C@@]1(O)C(=O)CO [dexamethasone]
Rat and human HSCs
  effect on cell proliferation (in words): no effect

## CC(=O)O[C@@H]1C[C@]2(C)[C@@H](C(C)=O)CC[C@H]2[C@@H]2CCC3=CC(=O)CC[C@]3(C)[C@H]21 [11α-progesterone acetate]
[3]
  IC50: 0.1 µM

## CC#C[C@]1(O)CC[C@H]2[C@@H]3CCC4=CC(=O)CCC4=C3[C@@H](c3ccc(N(C)C)cc3)C[C@@]21C [RU486]
Glucocorticoid receptor; 10 μM RU486, mean and SD of 3 samples
  % specific binding compared to dexamethasone alone, cytosol: 0* %
[5]
  activity at 10 µM: 123%

## CC(=O)O[C@@H]1C[C@H]2[C@@H]3CC[C@H](C(C)=O)[C@@]3(C)CC[C@@H]2[C@@]2(C)CCC(=O)C=C12 [6β-progesterone acetate]
[3]
  IC50: 0.5 µM

## CC(=O)C1CCC2C3CCC4=CC(=O)CCC4(C)C3CCC12C (stereo not shown) [progesterone]
[3]
  competition with dexamethasone for binding to the LAGS (in words): compete with dexamethasone for binding to the LAGS
Rat and human HSCs
  effect on cell proliferation (in words): no effect

## biotinylated dexamethasone
[3]
  IC50: > 100 µM

## C[C@@H]1C[C@H]2[C@@H]3CCC4=CC(=O)C=C[C@]4(C)[C@@]3(F)[C@@H](O)C[C@]2(C)[C@@]1(O)C(=O)COS(C)(=O)=O [dexamethasone mesylate]
[3]
  IC50: 10 µM

## CO[C@H]1C[C@H](O[C@H]2[C@H](C)[C@@H](O[C@@H]3O[C@H](C)C[C@H](N(C)C)[C@H]3OC(C)=O)[C@@H](C)C[C@@]3(CO3)C(=O)[C@H](C)[C@@H](OC(C)=O)[C@@H](C)[C@@H](C)OC(=O)[C@@H]2C)O[C@@H](C)[C@@H]1OC(C)=O [TAO, troleandomycin]
[4]; 100 μM
  % proliferation versus control (100%), T6 cells: 106 +/− 2.8%

## CC(=O)[C@H]1[C@H](C#N)C[C@H]2[C@@H]3CC=C4C[C@@H](O)CC[C@]4(C)[C@H]3CC[C@@]21C [PCN, pregnenolone 16-alpha carbonitrile]
[3]
  competition with dexamethasone for binding to the LAGS (in words): compete with dexamethasone for binding to the LAGS
[4]; 10 μM
  % proliferation versus control (100%), T6 cells: 55 +/− 17%
Rat and human HSCs
  effect on cell proliferation (in words): inhibited in their ability to proliferate
[6]
  Sirius red staining (collagens) in liver: significantly reduced
  blinded histological scoring of H&E stained liver sections, CCl4 versus CCl4/PCN treated rats: no significant difference
  liver serum (AST) enzyme levels, CCl4 versus CCl4/PCN treated rats: no significant difference
  number of cells and extent of α-smooth muscle actin staining in livers: significantly reduced

## betamethasonenone
[3]
  IC50: 5 µM
